Molecules are shown by their SMILES. Positions count from the first letter of the chain named.

Assay [1] concerns the target T1, wt hhIYD (iodotyrosine deiodinase from Haliscomenobacter hydrossis) (Haliscomenobacter hydrossis, UniProt F4KU78).
T1 sequence (F4KU78 1-222): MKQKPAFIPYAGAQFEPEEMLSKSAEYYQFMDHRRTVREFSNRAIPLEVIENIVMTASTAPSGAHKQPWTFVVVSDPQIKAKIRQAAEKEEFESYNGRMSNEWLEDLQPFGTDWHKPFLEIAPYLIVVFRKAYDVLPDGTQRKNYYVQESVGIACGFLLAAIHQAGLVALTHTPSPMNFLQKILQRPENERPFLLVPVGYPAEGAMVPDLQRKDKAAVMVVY
The assay is described as follows: UV-vis spectrum of enzyme-bound FMN, dithionite reduction. The class given is binding. The following applies: pH 6 MES, 500 mM NaCl, 10% glycerol; anaerobic.

For assay [2], the target named is T2, wt hhIYD (iodotyrosine deiodinase from Haliscomenobacter hydrossis) (Haliscomenobacter hydrossis, UniProt F4KU78, T173A).
T2 sequence (F4KU78 1-222 T173A): T1 sequence (F4KU78 1-222) with T173A
The assay is described as follows: steady-state reductive deiodination. The class given is biochemical. To be noted: read-out: I2-Tyr / KM; dithionite as reductant.

The target in assay [3] is T1, wt hhIYD (iodotyrosine deiodinase from Haliscomenobacter hydrossis). The assay is described as follows: quenching of active-site FMNox fluorescence. It counts as binding.
Assay [4] deals with T2, wt hhIYD (iodotyrosine deiodinase from Haliscomenobacter hydrossis). In words: quenching of active-site FMNox fluorescence. It counts as binding.

In the case of `Cc1cc2nc3c(=O)[nH]c(=O)nc-3n(C[C@H](O)[C@H](O)[C@H](O)COP(=O)(O)O)c2cc1C` [FMN], the “UV-vis spectrum of enzyme-bound FMN, dithionite reduction” value in assay [1] is reported as “Stoichiometric addition of dithionite to wt hhIYD under anaerobic conditions reduced its FMNox to FMNhq”.

For the compound `N[C@@H](Cc1cc(I)c(O)c(I)c1)C(=O)O` [I2-Tyr], the Km in assay [2] is 35 ± 8 µM. In addition, the Kd (usually a measure of binding affinity in units of concentration) in assay [3] came out at 2900 ± 100 nM; in assay [4], 2600 ± 200 nM.
